Read-outs that look alike come from different tables or passages of the source.
Experiments:
[1] = system: Chlorella pyrenoidosa, Pleurochloris pyrenoidosa and Phormidium sp.; conditions: FIG. 4
Protocol: This study was conducted in test pools without bathers. The water was initially balanced and proper water balance was maintained throughout the study. Each pool was inoculated weekly with mixed bacterial, fungal and algal cultures. The algae inoculations were prepared using the methodology below.
Algal cultures were maintained in 5 liter carboys at 22° C. under fluorescent light with a 12 hour on/off cycle. Air is continuously bubbled through the medium. Stock cultures of Chlorella pyrenoidosa and Pleurochloris pyrenoidosa are maintained in Kratz & Meyers medium and Phormidium sp., a filamentous blue-green alga, is maintained in BG-11.
150 milliliters of a combined inoculum containing equal amounts of each strain is added weekly per 10,000 gallons of water. Typically the cultures contain approximately 2×10^7 cells per milliliter; therefore approximately 2×10^9 cells are added per pool each week. However, if time allows, determine the actual number of algae in each sample by heamocytometry, using a Neubauer heamocytometer. Each pool was chemically treated using the procedure below.
A. Test Pool 7: Baquacil CDX +Didecyl dimethyl ammonium chloride (DDAC) • 1. […]
Observations were taken on a business daily basis and the pool was scored using the following 0-4 scale. • 0=no trace of algae • 1=trace amounts • 2=small patches • 3=large patches • 4=sides and bottom more than 25% covered by algae

[2] = system: wild mustard algae (Miami strain)
Protocol: (§1) Efficacy of zinc ions (in the form of zinc sulfate) was evaluated using two strains of very difficult to control wild mustard algae, both isolated from a pool treated with BAQUACIL (Arch Chemicals, Norwalk, CT). All experiments were conducted in 125 ml Erlenmeyer flasks that contained 50 ml of Jaworski's medium. To increase the surface area in the flasks each flask also contained 50 6 mm glass beads. The tests flasks were illuminated using a combination incandescent and fluorescent plant grow lights with 16 hours of illumination and 8 hours of darkness. Temperature was maintained at 80° F+/−5° F. The flasks were grown without agitation or additional aeration. One ml of a pooled mid-log culture was used to used to inoculate the test flasks to an initial optical density of 95%T. This yields an initial concentration of approximately […] algae per ml. Efficacy was evaluated in the presence and absence of a sub-optimal concentration of a primary sanitizer (PHMB). Growth was measured optically at 450 nm using a 1 inch cell in a Spectronic 20. All experiments used five replicates. The results of the optical readings were arithmetically averaged. […] In FIGS. 1 and 2, PHMB concentrations were held at 4 PPM, and zinc ion concentration was varied from 0 to 3 PPM. Growth over time was measured and plotted.

[3] = system: wild mustard algae (Schwab strain)
Protocol: as §1

[4] = 2 or 3 ppm zinc ions, PHMB 4 PPM

SMILES: O=S(=O)([O-])[O-].[Zn+2] [zinc sulfate]
- algaestatic performance (visual algae score 0-4) ([1]; Test Pool 7: Baquacil CDX + DDAC, single 4.2 ppm dosage of zinc sulfate (1.5 PPM zinc) after 102 days): improved algaestatic performance
- algaestatic performance (visual algae score 0-4) ([1]; Test Pool 8: Baquacil CDX control, 4.2 ppm dosages of zinc sulfate (1.5 PPM zinc) after 33, 40 and 61 days): improved algaestatic performance
- reduction of algal growth [2, 4]: approximately 50%
- algaestatic activity ([2]; FIG. 2, PHMB held at 4 PPM, zinc ion 0 to 3 PPM, growth measured optically at 450 nm): moderate algaestatic activity
- reduction of algal growth [3, 4]: approximately 50%
- algaestatic activity ([3]; FIG. 1, PHMB held at 4 PPM, zinc ion 0 to 3 PPM, growth measured optically at 450 nm): moderate algaestatic activity
